Measurements as given in patent US9215877B2, “Compositions including a vacancy-engineered(VE)-ZnO nanocomposite, methods of making a composition , method of using a composition” (priority 2014, dated 2015).

System: E. coli
Test: Minimum inhibitory concentration (MIC) against E. coli
Assay type: cell-based
Conditions: Escherichia coli, read-out: MIC (μg/mL) in metallic Zn or Cu

Work on `O=C([O-])c1ccccc1O.[Na+]` [Capping Agent, sodium salicylate] yielded an MIC of 3000 µg/mL.
